The text below walks through data of ChEMBL document CHEMBL1128751, “Isolation and structure of the human cancer cell growth inhibitory cyclic decapeptides phakellistatins 7, 8 and 91,2” (1995).

One assay has as its system P388. Briefly: In vitro inhibition of growth of p388 cells. In kind it is functional. The conditions noted are these: Mus musculus, read-out: ED50 (the source's name).
In a further assay the test system is NCI. Nature of the assay: Overall panel averaged growth inhibitory concentration against the U. S. National Cancer Institute panel of sixty human cancer cell lines. Format: functional.

Each structure is given as a SMILES string. In brackets after ≈: the same amount, converted by molar mass. Where a SMILES comes first, the peptide text is derived from it.

As a reminder, the GI50 is the concentration giving 50% growth inhibition. Low values mean greater sensitivity of the cells, high ones lower sensitivity of the cells. Consider `CC[C@H](C)[C@@H]1NC(=O)[C@@H]2CCCN2C(=O)[C@@H]2CCCN2C(=O)[C@H]([C@@H](C)CC)NC(=O)[C@H](Cc2ccc(O)cc2)NC(=O)[C@@H]2CCCN2C(=O)[C@@H]2CCCN2C(=O)[C@H](CC(C)C)NC(=O)[C@H](C)NC(=O)[C@H](Cc2ccccc2)NC1=O` (cyclo(ALPPYIPPIF)), for which the EC50 in the assay with P388 was 3 µg/mL (≈ 2.7 µM). The same molecule displayed a GI50 in the assay with NCI of 0.55 µM.

On to `CC[C@H](C)[C@@H]1NC(=O)[C@@H]2CCCN2C(=O)[C@@H]2CCCN2C(=O)[C@H]([C@@H](C)CC)NC(=O)[C@H](Cc2ccc(O)cc2)NC(=O)[C@@H]2CCCN2C(=O)[C@@H]2CCCN2C(=O)[C@H](CC(C)C)NC(=O)[C@H](C(C)C)NC(=O)[C@H](Cc2ccccc2)NC1=O` (cyclo(FVLPPYIPPI)), for which the EC50 in the assay on P388 stood at 2.9 µg/mL (≈ 2.55 µM). In addition, the GI50 in the assay with NCI is greater than 10 µM.

For the molecule `CC[C@H](C)[C@@H]1NC(=O)[C@@H]2CCCN2C(=O)[C@@H]2CCCN2C(=O)[C@H](C(C)C)NC(=O)[C@H](Cc2ccc(O)cc2)NC(=O)[C@@H]2CCCN2C(=O)[C@@H]2CCCN2C(=O)[C@H](CC(C)C)NC(=O)[C@H](C(C)C)NC(=O)[C@H](Cc2ccccc2)NC1=O` (cyclo(FVLPPYVPPI)), the EC50 in the assay with P388 came out at 4.1 µg/mL (≈ 3.65 µM). In addition, in the assay with NCI, the GI50 was greater than 10 µM.
